How the values were obtained:
HOP-62 = assay: Tested in vitro for cytotoxicity against human tumor cell line HOP62 (lung); type: functional
OVCAR-8 = assay: Tested in vitro for cytotoxicity against human tumor cell line OVCAR8 (ovarian).; type: functional
DU-145 [1] = assay: Tested in vitro for cytotoxicity against human tumor cell line DU-145 (prostate); type: functional
ACHN [2] = assay: Tested in vitro for cytotoxicity against human tumor cell line ACHN (renal).; type: functional
UACC-62 = assay: Tested in vitro for cytotoxicity against human tumor cell line UACC 62 (melanoma); type: functional
SF-268 = assay: Tested in vitro for cytotoxicity against human tumor cell line SF-268 (CNS).; type: functional
NCI/ADR-RES = assay: Tested in vitro for cytotoxicity against human tumor cell line MCF-7/ADR (breast); type: functional
[3] = test system: Panel (56 tumour cell lines); assay: Tested in vitro for cytotoxicity against 56 human tumor cell lines; type: functional, cell-based
ACHN [4] = assay: The compound was tested in vitro for cytotoxicity against human tumor cell line ACHN (renal).; type: functional
DU-145 [5] = assay: The compound was tested in vitro for cytotoxicity against human tumor cell line DU-145 (prostate); type: functional
Mus musculus [6] = assay: The compound (90 mg/kg) administered intravenously was tested for antitumor activity against A-498 (renal) xenograft model in mice; type: functional
NCI-H23 [7] = assay: (§1) The compound (90 mg/kg) administered intravenously was tested for antitumor activity against NCI-H23 (lung) xenograft model in mice; type: functional, Mus musculus
Mus musculus [8] = assay: The compound (200 mg/kg) administered intravenously was tested for antitumor activity against A-498 (renal) xenograft model in mice; type: functional
Mus musculus [9] = assay: The compound (90 mg/kg) administered intravenously was tested for antitumor activity against DU-145 (prostate) xenograft model in mice; type: functional, Prostate gland
Mus musculus [10] = assay: The compound (134 mg/kg) administered intravenously was tested for antitumor activity against DU-145 (prostate) xenograft model in mice; type: functional, Prostate gland
NCI-H23 [11] = assay: (§2) The compound (134 mg/kg) administered intravenously was tested for antitumor activity against NCI-H23 (lung) xenograft model in mice; type: functional, Mus musculus
Mus musculus [12] = assay: The compound (134 mg/kg) administered intravenously was tested for antitumor activity against A-498 (renal) xenograft model in mice; type: functional
Mus musculus [13] = assay: The compound (200 mg/kg) administered intravenously was tested for antitumor activity against DU-145 (prostate) xenograft model in mice; type: functional, Prostate gland
NCI-H23 [14] = assay: (§3) The compound (200 mg/kg) administered intravenously was tested for antitumor activity against NCI-H23 (lung) xenograft model in mice; type: functional, Mus musculus
Mus musculus [15] = assay: as §3; type: functional
Mus musculus [16] = assay: as §2; type: functional
Mus musculus [17] = assay: as §1; type: functional
Mus musculus [18] = assay: The compound (2.5 mg/kg) administered intravenously was tested for antitumor activity against A-498 (renal) xenograft model in mice; type: functional
NCI-H23 [19] = assay: The compound (10 mg/kg) administered intravenously was tested for antitumor activity against NCI-H23 (lung) xenograft model in mice; type: functional, Mus musculus
Mus musculus [20] = assay: The compound (5 mg/kg) administered intravenously was tested for antitumor activity against DU-145 (prostate) xenograft model in mice; type: functional, Prostate gland
Mus musculus [21] = assay: The compound (10 mg/kg) administered intravenously was tested for antitumor activity against DU-145 (prostate) xenograft model in mice; type: functional, Prostate gland
Mus musculus [22] = assay: The compound (10 mg/kg) administered intravenously was tested for antitumor activity against A-498 (renal) xenograft model in mice; type: functional
NCI-H23 [23] = assay: The compound (5 mg/kg) administered intravenously was tested for antitumor activity against NCI-H23 (lung) xenograft model in mice; type: functional, Mus musculus
Mus musculus [24] = assay: The compound (2.5 mg/kg) administered intravenously was tested for antitumor activity against DU-145 (prostate) xenograft model in mice; type: functional, Prostate gland
NCI-H23 [25] = assay: The compound (2.5 mg/kg) administered intravenously was tested for antitumor activity against NCI-H23 (lung) xenograft model in mice; type: functional, Mus musculus
Mus musculus [26] = assay: The compound (5 mg/kg) administered intravenously was tested for antitumor activity against A-498 (renal) xenograft model in mice; type: functional

| Compound | GI50 (HOP-62) [nM] | GI50 (OVCAR-8) [nM] | GI50 (DU-145 [1]) [nM] | GI50 (ACHN [2]) [nM] | GI50 (UACC-62) [nM] | GI50 (SF-268) [nM] | GI50 (NCI/ADR-RES) [nM] | IC50 [3] [nM] | also measured |
| --- | --- | --- | --- | --- | --- | --- | --- | --- | --- |
| CC[C@@]1(O)C(=O)OCc2c1cc1n(c2=O)C(OCCO)c2cc3cc(O)ccc3nc2-1 (some centres undefined) | 2440 | 2520 | 3260 | 3400 | 2120 | 2100 | – | – | – |
| CCc1c2c(nc3cccc(OC)c13)-c1cc3c(c(=O)n1C2OCCF)COC(=O)[C@]3(O)CC (some centres undefined) | 1220 | 1920 | 790 | 1060 | 2020 | 1890 | 1990 | – | – |
| CCc1c2c(nc3cccc(OC)c13)-c1cc3c(c(=O)n1C2OCCOC)COC(=O)[C@]3(O)CC (some centres undefined) | 660 | 850 | 1140 | 520 | 2540 | 590 | 510 | – | – |
| CC[C@@]1(O)C(=O)OCc2c1cc1n(c2=O)C(OCCF)c2cc3cc(O)ccc3nc2-1 (some centres undefined) | 10000 | 4500 | 250 | 500 | 10000 | 20000 | 4000 | – | – |
| CCc1c2c(nc3cccc(OC)c13)-c1cc3c(c(=O)n1C2OCCO)COC(=O)[C@]3(O)CC (some centres undefined) | 6470 | 8400 | 5020 | 3820 | – | 1100 | 5530 | – | – |
| CCOC1c2c(nc3cccc(OC)c3c2CC)-c2cc3c(c(=O)n21)COC(=O)[C@]3(O)CC (some centres undefined) | – | – | – | – | – | – | – | 5370 | – |
| CC[C@@]1(O)C(=O)OCc2c1cc1n(c2=O)C(OCC(F)(F)F)c2cc3c([N+](=O)[O-])cccc3nc2-1 (some centres undefined) | 500 | 130 | 60 | 20 | 160 | 90 | 70 | – | – |
| CCc1c2c(nc3ccc(O)cc13)-c1cc3c(c(=O)n1C2OCC(F)(F)F)COC(=O)[C@]3(O)CC (some centres undefined) | 2000 | 500 | 1000 | 400 | 70 | 2000 | 400 | – | – |
| CC[C@@]1(O)C(=O)OCc2c1cc1n(c2=O)C(OCCOC)c2cc3cc(O)ccc3nc2-1 (some centres undefined) | 4000 | 4500 | 680 | 1200 | 520 | 5000 | < 10 | – | – |
| CCOC1c2c(nc3ccc(O)cc3c2CC)-c2cc3c(c(=O)n21)COC(=O)[C@]3(O)CC (some centres undefined) | – | – | – | – | – | – | – | 5000 | – |
| CC[C@@]1(O)C(=O)OCc2c1cc1n(c2=O)C(OCCO)c2cc3c([N+](=O)[O-])cccc3nc2-1 (some centres undefined) | 2450 | 7140 | 4130 | 3360 | 2460 | 4660 | – | – | – |
| CCOC1c2cc3cccc([N+](=O)[O-])c3nc2-c2cc3c(c(=O)n21)COC(=O)[C@]3(O)CC (some centres undefined) | – | – | – | – | – | – | – | > 30000 | – |
| CC[C@@]1(O)C(=O)OCc2c1cc1n(c2=O)C(OCCOC)c2cc3c([N+](=O)[O-])cccc3nc2-1 (some centres undefined) | 400 | 970 | – | – | 470 | 1000 | – | – | GI50 (ACHN [4]): 430 nM; GI50 (DU-145 [5]): 440 nM |
| CCc1c2c(nc3cccc(OC)c13)-c1cc3c(c(=O)n1C2OCC(F)(F)F)COC(=O)[C@]3(O)CC (some centres undefined) | 1580 | 2630 | 3900 | 2830 | 4680 | 2130 | 1840 | – | – |
| CCOC1c2cc3c([N+](=O)[O-])cccc3nc2-c2cc3c(c(=O)n21)COC(=O)[C@]3(O)CC (some centres undefined) | – | – | – | – | – | – | – | 27500 | – |
| CCc1c2c(nc3ccc(O)cc13)-c1cc3c(c(=O)n1C2OCCOC)COC(=O)[C@]3(O)CC (some centres undefined) | 20000 | 100 | 550 | 600 | 600 | > 30000 | 200 | – | – |
| CC[C@@]1(O)C(=O)OCc2c1cc1n(c2=O)C(OCC(F)(F)F)c2cc3cc(O)ccc3nc2-1 (some centres undefined) | 60 | 260 | 100 | 100 | 100 | 30 | 200 | – | T-C/C (Mus musculus [6]): 46%; T-C/C (NCI-H23 [7]): 12%; T-C/C (Mus musculus [8]): 27%; T-C/C (Mus musculus [9]): 8%; T-C/C (Mus musculus [10]): 4%; T-C/C (NCI-H23 [11]): 58%; T-C/C (Mus musculus [12]): 46%; T-C/C (Mus musculus [13]): 21%; T-C/C (NCI-H23 [14]): 58% |
| CCOC1c2cc3c(O)cccc3nc2-c2cc3c(c(=O)n21)COC(=O)[C@]3(O)CC (some centres undefined) | – | – | – | – | – | – | – | 200 | T-C/C (Mus musculus [6]): 23%; T-C/C (Mus musculus [8]): 6%; T-C/C (Mus musculus [9]): 9%; T-C/C (Mus musculus [10]): 27%; T-C/C (Mus musculus [12]): 8%; T-C/C (Mus musculus [13]): 33%; T-C/C (Mus musculus [15]): 12%; T-C/C (Mus musculus [16]): 15%; T-C/C (Mus musculus [17]): 8% |
| CCOC1c2cc3cc(O)ccc3nc2-c2cc3c(c(=O)n21)COC(=O)[C@]3(O)CC (some centres undefined) | – | – | – | – | – | – | – | 2880 | – |
| CCc1c2c(nc3ccc(O)cc13)-c1cc3c(c(=O)n1C2OCCF)COC(=O)[C@]3(O)CC (some centres undefined) | 25000 | 500 | 1000 | 8000 | 1000 | > 30000 | 100 | – | – |
| CC[C@@]1(O)C(=O)OCc2c1cc1n(c2=O)C(OCCF)c2cc3c([N+](=O)[O-])cccc3nc2-1 (some centres undefined) | 360 | 740 | 630 | 250 | 400 | 310 | 200 | – | – |
| CCOC1c2c(nc3cccc(O)c3c2CC)-c2cc3c(c(=O)n21)COC(=O)[C@]3(O)CC (some centres undefined) | – | – | – | – | – | – | – | 4670 | – |
| CC[C@@]1(O)C(=O)OCc2c1cc1n(c2=O)Cc2cc3ccccc3nc2-1 [CAMPTOTHECIN] | – | – | – | – | – | – | – | 40 | – |
| CC[C@@]1(O)C(=O)OCc2c1cc1n(c2=O)Cc2cc3c(CN(C)C)c(O)ccc3nc2-1 [TOPOTECAN] | 50 | 200 | 40 | 40 | 30 | 80 | 70 | 160 | T-C/C (Mus musculus [18]): 11%; T-C/C (NCI-H23 [19]): 60%; T-C/C (Mus musculus [20]): 35%; T-C/C (Mus musculus [21]): 339%; T-C/C (Mus musculus [22]): 47%; T-C/C (NCI-H23 [23]): 6%; T-C/C (Mus musculus [24]): 83%; T-C/C (NCI-H23 [25]): 10%; T-C/C (Mus musculus [26]): 67% |
